For test [1], the system named is MCF7. The test is described as follows: Cell cycle arrest in human MCF7 cells by G2 checkpoint inhibition assay. It counts as functional, cell-based.
For test [2], the system named is MCF7. In words: Cytotoxicity against human MCF7 cells. The format is functional, cell-based.

Values after ≈ are worked out from the molar mass of the structure shown. Active and inactive are the calls of the source. The calls are words filed in the database; no cut-off is given here.

Regarding `C[C@]1(O)CC(=O)O[C@](C)(CCCCCCCCC/C=C/Cc2ccccc2)C1` [TRISPHAEROLIDE A], in the test with MCF7 [1], the result was inactive. 30 µg/mL (≈ 77.6 µM) corresponded to half-maximal inhibition in the test on MCF7 [2] (IC50).

Source of the values: ChEMBL document CHEMBL1159371, “Trisphaerolide A, a novel polyketide from the Dominican sponge Erylus trisphaerus” (J Nat Prod, 2003).
